From publication PMC2826609 (Peptides, 2009)
Positions of bridges follow the written chain, without caps; N, C: chain ends. Residues, ends and D or L forms follow the SMILES beside them.

Key:
[1] = target: Aedes aegypti allatostatin-C receptor AeAS-CrA (Aedes aegypti, UniProt A0A411JKC3); format: cell-based
[2] = target: Aedes aegypti allatostatin-C receptor AeAS-CrB (Aedes aegypti, UniProt A0A411JKA7); format: cell-based

| Compound | FLIPR signal, peptide selectivity (AeAS-CrA) ([1]; AeAS-CrA, HEK293T/Gα16gust44 cells, results not shown) | FLIPR signal, peptide selectivity (AeAS-CrB) ([2]; AeAS-CrB, HEK293T/Gα16gust44 cells, results not shown) | EC50 [1] [nM] | EC50 [2] [nM] |
| --- | --- | --- | --- | --- |
| APFRNSEMMTARGF [AT] | no signal was detected | no signal was detected | – | – |
| CC[C@H](C)[C@H](NC(=O)[C@@H](N)CCC(N)=O)C(=O)N[C@@H](CCCNC(=N)N)C(=O)N[C@@H](Cc1ccc(O)cc1)C(=O)N[C@@H](CCCNC(=N)N)C(=O)N[C@@H](CCC(N)=O)C(=O)N[C@H]1CSSC[C@@H](C(=O)N[C@@H](Cc2ccccc2)C(=O)O)NC(=O)[C@H](CO)NC(=O)[C@H]([C@@H](C)CC)NC(=O)[C@@H]2CCCN2C(=O)[C@H](CC(N)=O)NC(=O)[C@H](Cc2ccccc2)NC(=O)[C@H](Cc2ccc(O)cc2)NC1=O [AS-C] (H-QIRYRQCYFNPISCF-OH; disulfide 7-14) | – | – | 89 ± 18.5 | 27.7 ± 7.2 |
